Measurements reported in ChEMBL document CHEMBL1201862, “PubChem BioAssay data set” (2004).
Activity calls are given as the source filed them.

Columns and labels:
[1] = tested on: Streptococcus sp. 'group A'; test: growth inhibition of control SK(-) GAS strain, dose response, counter-screen for streptokinase expression inhibitor project, luminescence, kanamycin, BacTiterGlo, confirmation (AID 1900); type: functional, organism-based
Streptokinase A = molecular target: T1, Streptokinase A (Streptococcus pyogenes serotype M1, UniProt P10520); test: S. pyogenes streptokinase expression inhibitors, potency, dose response, plasminogen activation absorbance, OD405 (AID 1914); type: functional, Streptococcus pyogenes M1 GAS;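 also: secreted streptokinase activity via plasminogen activation per viability signal from cell pellet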
T1 sequence (P10520 whole entry): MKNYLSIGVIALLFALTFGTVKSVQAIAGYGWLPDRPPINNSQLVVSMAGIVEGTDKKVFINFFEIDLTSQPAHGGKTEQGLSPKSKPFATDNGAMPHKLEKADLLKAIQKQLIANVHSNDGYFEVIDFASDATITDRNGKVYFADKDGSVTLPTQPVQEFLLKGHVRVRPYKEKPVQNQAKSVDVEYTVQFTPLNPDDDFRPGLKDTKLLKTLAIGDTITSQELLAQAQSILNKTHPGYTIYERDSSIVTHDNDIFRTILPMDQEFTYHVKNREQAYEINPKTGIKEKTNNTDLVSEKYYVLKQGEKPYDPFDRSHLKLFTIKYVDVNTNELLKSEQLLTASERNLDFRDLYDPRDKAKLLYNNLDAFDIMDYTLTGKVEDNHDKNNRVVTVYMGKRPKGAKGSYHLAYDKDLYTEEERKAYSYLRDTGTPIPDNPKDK

[2] = molecular target: T2, Corticotropin-releasing factor receptor 2/Corticotropin-releasing factor-binding protein (Homo sapiens, UniProt P24387+Q13324); test: Dose Response confirmation of uHTS hits for small molecule antagonists of the CRF-binding protein and CRF-R2 receptor complex.; type: functional; details: read-out: IC50_Mean
T2 sequence (Q13324 whole entry): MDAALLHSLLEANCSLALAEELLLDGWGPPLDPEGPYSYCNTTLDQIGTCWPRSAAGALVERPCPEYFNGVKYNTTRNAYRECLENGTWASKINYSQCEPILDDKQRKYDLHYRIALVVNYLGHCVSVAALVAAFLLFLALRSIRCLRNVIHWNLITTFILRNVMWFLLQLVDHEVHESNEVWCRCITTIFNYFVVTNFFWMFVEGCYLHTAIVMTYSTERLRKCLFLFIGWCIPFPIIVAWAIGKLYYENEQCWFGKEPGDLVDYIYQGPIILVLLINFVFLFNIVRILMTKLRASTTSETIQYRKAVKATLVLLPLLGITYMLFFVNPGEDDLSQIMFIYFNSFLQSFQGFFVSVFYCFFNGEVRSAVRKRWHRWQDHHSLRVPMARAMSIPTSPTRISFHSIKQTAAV
T2 sequence (P24387 whole entry): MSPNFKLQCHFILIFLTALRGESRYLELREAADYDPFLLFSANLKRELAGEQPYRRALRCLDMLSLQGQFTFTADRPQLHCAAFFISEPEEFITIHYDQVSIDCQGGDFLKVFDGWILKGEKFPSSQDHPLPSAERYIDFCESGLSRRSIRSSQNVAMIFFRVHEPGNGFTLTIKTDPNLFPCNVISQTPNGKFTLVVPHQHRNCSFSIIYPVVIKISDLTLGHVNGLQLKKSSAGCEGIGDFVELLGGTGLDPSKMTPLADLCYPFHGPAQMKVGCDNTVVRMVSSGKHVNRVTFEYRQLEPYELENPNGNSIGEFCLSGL

[3] = cytotoxicity in KRAS-transformed pancreatic duct cells, primary screen, cell-based, fluorescence, HTS (AID 431); type: functional; details: Homo sapiens;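 also: cell line used: HPDE-C7K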
[4] = molecular target: T2, Corticotropin-releasing factor receptor 2/Corticotropin-releasing factor-binding protein; test: activators of CRF receptor 2 with binding protein – uHTS hits, confirmation (AID 602473); type: functional; details: read-out: EC50_Mean
[5] = cytotoxicity in HPDE-C7 cells, cell-based, fluorescence, HTS (AID 430); type: functional; details: Homo sapiens
Streptococcus = test: Group A Streptococcus viability loss, dose response, counter-screen for streptokinase expression inhibitor project, luminescence, BacTiterGlo (AID 1915); type: functional, organism-based;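 also: potency for reduction of bacterial viability or growth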
[6] = molecular target: Heat shock protein HSP 90-alpha (Homo sapiens, UniProt P07900); type: functional, organism-based
[7] = molecular target: G-protein coupled receptor 55 (Homo sapiens, UniProt Q9Y2T6); test: GPR55 agonists via beta-arrestin recruitment, primary screen, imaging, U2OS cells, beta-arrestin-GFP redistribution (AID 1961); type: functional
G-protein coupled receptor 55, sequence (Q9Y2T6 whole entry): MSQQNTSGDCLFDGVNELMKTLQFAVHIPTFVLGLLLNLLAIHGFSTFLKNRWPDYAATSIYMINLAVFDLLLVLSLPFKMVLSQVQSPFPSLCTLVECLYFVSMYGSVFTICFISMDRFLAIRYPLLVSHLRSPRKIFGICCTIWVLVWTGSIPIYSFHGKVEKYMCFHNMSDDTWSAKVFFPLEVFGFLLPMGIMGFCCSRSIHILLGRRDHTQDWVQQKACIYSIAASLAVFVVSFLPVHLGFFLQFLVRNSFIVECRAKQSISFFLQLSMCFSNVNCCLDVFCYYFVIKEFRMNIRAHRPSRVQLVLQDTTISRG

[8] = molecular target: T3, Calpain-2 catalytic subunit (Sus scrofa, UniProt P43367); test: pig calpain II inhibitor potency, dose response, biochemical, fluorogenic peptide substrate (AID 1420); type: functional
T3 sequence (P43367 whole entry): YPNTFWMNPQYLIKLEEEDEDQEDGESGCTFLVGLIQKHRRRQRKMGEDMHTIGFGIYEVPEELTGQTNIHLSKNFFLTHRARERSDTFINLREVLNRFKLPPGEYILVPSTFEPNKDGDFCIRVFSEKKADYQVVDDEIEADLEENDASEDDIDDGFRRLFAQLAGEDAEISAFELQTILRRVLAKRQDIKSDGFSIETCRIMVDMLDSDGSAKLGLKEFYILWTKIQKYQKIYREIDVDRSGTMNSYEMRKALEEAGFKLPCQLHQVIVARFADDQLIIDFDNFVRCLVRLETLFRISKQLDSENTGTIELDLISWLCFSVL

[9] = molecular target: Disintegrin and metalloproteinase domain-containing protein 17 (Homo sapiens, UniProt P78536); test: exosite inhibitors of ADAM17, dose response, biochemical (AID 743260)
Disintegrin and metalloproteinase domain-containing protein 17, sequence (P78536 whole entry, the tested form may be a part): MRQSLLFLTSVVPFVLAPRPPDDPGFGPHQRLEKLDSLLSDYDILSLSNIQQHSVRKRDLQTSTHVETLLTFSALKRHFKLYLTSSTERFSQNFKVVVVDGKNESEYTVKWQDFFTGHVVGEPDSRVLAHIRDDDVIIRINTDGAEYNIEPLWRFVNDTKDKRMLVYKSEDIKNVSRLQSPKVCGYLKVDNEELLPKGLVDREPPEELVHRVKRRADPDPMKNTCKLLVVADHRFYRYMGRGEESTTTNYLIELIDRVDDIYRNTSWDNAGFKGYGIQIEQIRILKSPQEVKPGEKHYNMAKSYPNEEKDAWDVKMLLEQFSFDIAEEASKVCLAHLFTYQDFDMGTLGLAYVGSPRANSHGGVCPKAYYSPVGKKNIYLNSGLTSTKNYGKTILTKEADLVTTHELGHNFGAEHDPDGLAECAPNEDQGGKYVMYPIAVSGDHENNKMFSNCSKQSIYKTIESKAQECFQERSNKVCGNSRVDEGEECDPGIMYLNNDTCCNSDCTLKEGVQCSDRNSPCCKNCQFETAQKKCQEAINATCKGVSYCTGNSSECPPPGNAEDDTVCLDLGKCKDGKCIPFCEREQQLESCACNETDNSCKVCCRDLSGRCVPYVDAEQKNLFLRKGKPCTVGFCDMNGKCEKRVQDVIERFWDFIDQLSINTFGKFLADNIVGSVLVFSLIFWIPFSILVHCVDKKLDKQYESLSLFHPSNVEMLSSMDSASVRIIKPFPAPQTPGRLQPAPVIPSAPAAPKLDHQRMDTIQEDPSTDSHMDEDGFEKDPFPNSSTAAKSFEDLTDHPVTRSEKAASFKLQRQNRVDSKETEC

Hexokinase = Hexokinase (Trypanosoma brucei, UniProt Q38C41); test: Confirmation assay for inhibitors of Trypanosoma brucei hexokinase 1-Analogue-first series. [Related pubchem assays (depositor defined):AID1430, AID1632, AID2516, AID2560, AID2579, AID2600, AID449725, AID492951]; type: functional
Hexokinase, sequence (Q38C41 whole entry): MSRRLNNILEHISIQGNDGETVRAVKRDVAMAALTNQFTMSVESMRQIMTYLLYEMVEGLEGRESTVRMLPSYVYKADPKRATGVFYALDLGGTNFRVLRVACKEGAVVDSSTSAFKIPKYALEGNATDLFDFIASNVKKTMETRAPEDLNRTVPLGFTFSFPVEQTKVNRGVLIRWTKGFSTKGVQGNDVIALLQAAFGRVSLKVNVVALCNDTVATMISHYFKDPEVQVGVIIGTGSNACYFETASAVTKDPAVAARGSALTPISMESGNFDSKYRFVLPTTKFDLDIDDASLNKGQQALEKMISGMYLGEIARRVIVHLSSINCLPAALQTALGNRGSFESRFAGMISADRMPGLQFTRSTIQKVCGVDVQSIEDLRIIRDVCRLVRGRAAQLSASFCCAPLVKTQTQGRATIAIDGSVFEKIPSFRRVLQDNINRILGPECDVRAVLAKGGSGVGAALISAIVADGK

[10] = molecular target: T4, Tyrosine-protein phosphatase non-receptor type 7 (Homo sapiens, UniProt P35236); test: redox-dependent HePTP inhibition, mechanism study, biochemical, fluorescence (AID 2068); type: functional
T4 sequence (P35236 whole entry): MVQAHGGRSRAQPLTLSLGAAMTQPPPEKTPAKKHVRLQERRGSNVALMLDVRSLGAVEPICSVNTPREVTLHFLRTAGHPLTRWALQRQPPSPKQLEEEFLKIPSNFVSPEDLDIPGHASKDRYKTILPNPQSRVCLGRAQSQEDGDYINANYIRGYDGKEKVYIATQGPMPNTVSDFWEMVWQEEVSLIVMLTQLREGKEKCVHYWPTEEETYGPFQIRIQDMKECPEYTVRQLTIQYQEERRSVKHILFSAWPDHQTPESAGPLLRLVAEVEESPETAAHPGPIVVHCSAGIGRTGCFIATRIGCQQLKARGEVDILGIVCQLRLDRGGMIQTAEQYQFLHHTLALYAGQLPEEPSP

For `CCCOC(=O)c1ccc(Oc2c[nH]nc2-c2ccc(OCC)cc2O)cc1`, the EC50 [1] was 8.69 µM (active), the EC50 (Streptokinase A) was > 150 µM (not active) and the IC50 [2] was > 47.1 µM (inactive). For the same compound, the EC50 [3] was 6.96 µM (active), the EC50 [4] was > 53 µM (inactive) and the EC50 [5] was 6.6 µM (active). For the same compound, the EC50 (Streptococcus) was 33.8 µM (active), the AC50 [6] was 7.92 µM (active) and the EC50 [7] was > 32 µM (inactive). For the same compound, the IC50 [8] was 19.6 µM (not active) and the IC50 [9] was > 69.5 µM (inactive).
With `O=c1c2cc(Br)ccc2sn1-c1ccccc1` the IC50 (Hexokinase) was > 25 µM (inactive).
For `CCCN(CCC)Cc1c(C(=O)N/N=C/c2c[nH]c3ccccc23)nnn1-c1nonc1N`, the EC50 [7] was 0.905 µM (active).
In the case of `CCN(CC)C(=O)C1CCCN(C(=O)Nc2ccc3nc(-c4ccco4)c(-c4ccco4)nc3c2)C1` (stereo not given), the IC50 [10] is reported as 2.66 µM (active).
For `COc1ccc(C(=O)NCC(=O)O)cc1`, the IC50 (Hexokinase) was > 25 µM (inactive).
